Columns and labels:
Assay in all cases: apparent dissociation constant (pKDapp, Kinobeads competition, Cheng-Prusoff corrected) (-log10 M); higher = tighter binding
RIPK2 = RIPK2 (UniProt O43353); settings: affinity matrix / lysate: Kinobeads, mixed HEK293/K-562/placenta lysate
FRK = FRK (UniProt P42685); settings: affinity matrix / lysate: Kinobeads, mixed HEK293/K-562/placenta lysate
MKNK1 = MKNK1 (UniProt Q9BUB5); settings: affinity matrix / lysate: Kinobeads, mixed HEK293/K-562/placenta lysate
PIM3 = PIM3 (UniProt Q86V86); settings: affinity matrix / lysate: Kinobeads, mixed HEK293/K-562/placenta lysate
PIP4K2B = PIP4K2B (UniProt P78356); settings: affinity matrix / lysate: Kinobeads, mixed HEK293/K-562/placenta lysate
CDC2 = CDC2 (UniProt P06493); settings: affinity matrix / lysate: Kinobeads, mixed HEK293/K-562/placenta lysate
PKN2 = PKN2 (UniProt Q16513); settings: affinity matrix / lysate: Kinobeads, mixed HEK293/K-562/placenta lysate
HIPK3 = HIPK3 (UniProt Q9H422); settings: affinity matrix / lysate: Kinobeads, mixed HEK293/K-562/placenta lysate
FGFR1 = FGFR1 (UniProt P11362); settings: affinity matrix / lysate: Kinobeads, mixed HEK293/K-562/placenta lysate
PDPK1 = PDPK1 (UniProt O15530); settings: affinity matrix / lysate: Kinobeads, mixed HEK293/K-562/placenta lysate
RIOK2 = RIOK2 (UniProt Q9BVS4)
MAP2K4 = MAP2K4 (UniProt P45985); settings: affinity matrix / lysate: Kinobeads, mixed HEK293/K-562/placenta lysate
TNK1 = TNK1 (UniProt Q13470); settings: affinity matrix / lysate: Kinobeads, mixed HEK293/K-562/placenta lysate
PRKD2 = PRKD2 (UniProt Q9BZL6); settings: affinity matrix / lysate: Kinobeads, mixed HEK293/K-562/placenta lysate
ARAF = ARAF (UniProt P10398); settings: affinity matrix / lysate: Kinobeads, mixed HEK293/K-562/placenta lysate
PRKAA1 = PRKAA1 (UniProt Q13131); settings: affinity matrix / lysate: Kinobeads, mixed HEK293/K-562/placenta lysate
DDR2 = DDR2 (UniProt Q16832); settings: affinity matrix / lysate: Kinobeads, mixed HEK293/K-562/placenta lysate
SGK1 = SGK1 (UniProt O00141); settings: affinity matrix / lysate: Kinobeads, mixed HEK293/K-562/placenta lysate
CAMK1D = CAMK1D (UniProt Q8IU85); settings: affinity matrix / lysate: Kinobeads, mixed HEK293/K-562/placenta lysate
EIF2AK3 = EIF2AK3 (UniProt Q9NZJ5); settings: affinity matrix / lysate: Kinobeads, mixed HEK293/K-562/placenta lysate
MAPK15 = MAPK15 (UniProt Q8TD08); settings: affinity matrix / lysate: Kinobeads, mixed HEK293/K-562/placenta lysate
ADCK5 = ADCK5 (UniProt Q3MIX3); settings: affinity matrix / lysate: Kinobeads, mixed HEK293/K-562/placenta lysate
MAPK10 = MAPK10 (UniProt P53779); settings: affinity matrix / lysate: Kinobeads, mixed HEK293/K-562/placenta lysate
TLK1 = TLK1 (UniProt Q9UKI8); settings: affinity matrix / lysate: Kinobeads, mixed HEK293/K-562/placenta lysate
MAP4K1 = MAP4K1 (UniProt Q92918); settings: affinity matrix / lysate: Kinobeads, mixed HEK293/K-562/placenta lysate
RP6-213H19 1 = settings: affinity matrix / lysate: Kinobeads, mixed HEK293/K-562/placenta lysate
MAP3K11 = MAP3K11 (UniProt Q16584); settings: affinity matrix / lysate: Kinobeads, mixed HEK293/K-562/placenta lysate
DYRK1B = DYRK1B (UniProt Q9Y463); settings: affinity matrix / lysate: Kinobeads, mixed HEK293/K-562/placenta lysate
CAMK1 = CAMK1 (UniProt Q14012); settings: affinity matrix / lysate: Kinobeads, mixed HEK293/K-562/placenta lysate
RIPK4 = RIPK4 (UniProt P57078); settings: affinity matrix / lysate: Kinobeads, mixed HEK293/K-562/placenta lysate
LCK = LCK (UniProt P06239); settings: affinity matrix / lysate: Kinobeads, mixed HEK293/K-562/placenta lysate
PAK6 = PAK6 (UniProt Q9NQU5); settings: affinity matrix / lysate: Kinobeads, mixed HEK293/K-562/placenta lysate
PRKACA = PRKACA (UniProt P17612); settings: affinity matrix / lysate: Kinobeads, mixed HEK293/K-562/placenta lysate
EIF2AK2 = EIF2AK2 (UniProt P19525); settings: affinity matrix / lysate: Kinobeads, mixed HEK293/K-562/placenta lysate
[1] = affinity matrix / lysate: Kinobeads, mixed HEK293/K-562/placenta lysate
[2] = affinity matrix / lysate: Lipid Kinobeads, mixed HeLa/Jurkat/K-562 lysate

Measured: apparent dissociation constant (-log10 M)

Chain of RIOK2 (Q9BVS4 whole entry, looked up): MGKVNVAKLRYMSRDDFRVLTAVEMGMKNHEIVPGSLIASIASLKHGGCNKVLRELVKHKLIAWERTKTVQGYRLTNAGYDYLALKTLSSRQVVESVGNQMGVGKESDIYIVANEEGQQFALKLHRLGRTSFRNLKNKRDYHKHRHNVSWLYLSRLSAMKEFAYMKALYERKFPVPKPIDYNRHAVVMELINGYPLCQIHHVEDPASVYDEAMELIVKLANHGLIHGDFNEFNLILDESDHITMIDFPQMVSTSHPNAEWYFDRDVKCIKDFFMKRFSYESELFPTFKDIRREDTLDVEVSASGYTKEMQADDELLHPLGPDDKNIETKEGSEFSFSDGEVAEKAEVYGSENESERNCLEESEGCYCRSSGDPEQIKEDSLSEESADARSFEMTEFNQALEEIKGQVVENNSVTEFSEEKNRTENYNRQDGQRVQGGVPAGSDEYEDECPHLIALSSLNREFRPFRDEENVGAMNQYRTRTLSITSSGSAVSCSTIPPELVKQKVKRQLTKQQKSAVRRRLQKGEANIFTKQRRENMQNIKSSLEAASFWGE
Chain of HIPK3 (Q9H422 whole entry, looked up): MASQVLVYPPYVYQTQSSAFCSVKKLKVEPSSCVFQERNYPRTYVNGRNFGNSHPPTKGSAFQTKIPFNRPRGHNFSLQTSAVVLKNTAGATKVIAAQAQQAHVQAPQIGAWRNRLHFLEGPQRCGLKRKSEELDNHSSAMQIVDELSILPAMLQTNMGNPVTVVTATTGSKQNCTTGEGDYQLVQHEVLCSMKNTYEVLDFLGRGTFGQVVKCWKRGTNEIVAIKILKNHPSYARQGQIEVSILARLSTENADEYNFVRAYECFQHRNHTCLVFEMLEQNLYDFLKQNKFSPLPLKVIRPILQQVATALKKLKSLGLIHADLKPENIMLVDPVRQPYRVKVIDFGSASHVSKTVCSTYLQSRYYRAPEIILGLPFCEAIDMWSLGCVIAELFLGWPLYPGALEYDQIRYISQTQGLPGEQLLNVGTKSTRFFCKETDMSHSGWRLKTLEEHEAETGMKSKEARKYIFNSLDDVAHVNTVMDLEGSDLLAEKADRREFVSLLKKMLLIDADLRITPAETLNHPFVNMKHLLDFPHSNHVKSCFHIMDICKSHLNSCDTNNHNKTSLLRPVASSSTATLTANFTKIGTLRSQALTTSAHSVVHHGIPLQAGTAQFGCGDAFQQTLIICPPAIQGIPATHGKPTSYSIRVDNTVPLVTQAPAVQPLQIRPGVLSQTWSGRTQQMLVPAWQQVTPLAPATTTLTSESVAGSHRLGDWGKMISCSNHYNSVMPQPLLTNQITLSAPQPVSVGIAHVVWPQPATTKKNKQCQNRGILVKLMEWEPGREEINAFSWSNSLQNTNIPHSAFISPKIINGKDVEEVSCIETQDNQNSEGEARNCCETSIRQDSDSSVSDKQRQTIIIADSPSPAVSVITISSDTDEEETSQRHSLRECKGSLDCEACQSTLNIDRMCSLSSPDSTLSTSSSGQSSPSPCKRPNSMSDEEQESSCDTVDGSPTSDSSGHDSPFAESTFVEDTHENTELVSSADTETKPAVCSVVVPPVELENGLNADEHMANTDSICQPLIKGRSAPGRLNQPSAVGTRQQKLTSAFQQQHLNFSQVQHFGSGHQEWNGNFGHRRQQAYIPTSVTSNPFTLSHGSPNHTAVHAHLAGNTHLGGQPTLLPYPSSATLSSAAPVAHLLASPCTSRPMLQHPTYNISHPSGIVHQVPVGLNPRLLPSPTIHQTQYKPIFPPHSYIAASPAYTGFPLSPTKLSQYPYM
Chain of PDPK1 (O15530 whole entry): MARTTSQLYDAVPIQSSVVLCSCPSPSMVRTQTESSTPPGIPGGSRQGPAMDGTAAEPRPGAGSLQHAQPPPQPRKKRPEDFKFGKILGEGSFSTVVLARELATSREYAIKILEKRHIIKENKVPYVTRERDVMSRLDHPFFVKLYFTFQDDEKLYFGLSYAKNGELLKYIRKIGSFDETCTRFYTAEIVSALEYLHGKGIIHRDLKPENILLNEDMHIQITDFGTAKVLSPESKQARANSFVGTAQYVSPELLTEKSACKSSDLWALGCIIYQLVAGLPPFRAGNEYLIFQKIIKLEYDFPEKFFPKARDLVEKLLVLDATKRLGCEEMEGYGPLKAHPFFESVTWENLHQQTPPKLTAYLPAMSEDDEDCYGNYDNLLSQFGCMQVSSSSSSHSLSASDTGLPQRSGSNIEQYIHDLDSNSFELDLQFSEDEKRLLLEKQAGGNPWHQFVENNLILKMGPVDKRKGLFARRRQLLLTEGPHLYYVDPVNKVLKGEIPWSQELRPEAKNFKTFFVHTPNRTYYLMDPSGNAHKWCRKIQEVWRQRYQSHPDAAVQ
Chain of ARAF (P10398 whole entry): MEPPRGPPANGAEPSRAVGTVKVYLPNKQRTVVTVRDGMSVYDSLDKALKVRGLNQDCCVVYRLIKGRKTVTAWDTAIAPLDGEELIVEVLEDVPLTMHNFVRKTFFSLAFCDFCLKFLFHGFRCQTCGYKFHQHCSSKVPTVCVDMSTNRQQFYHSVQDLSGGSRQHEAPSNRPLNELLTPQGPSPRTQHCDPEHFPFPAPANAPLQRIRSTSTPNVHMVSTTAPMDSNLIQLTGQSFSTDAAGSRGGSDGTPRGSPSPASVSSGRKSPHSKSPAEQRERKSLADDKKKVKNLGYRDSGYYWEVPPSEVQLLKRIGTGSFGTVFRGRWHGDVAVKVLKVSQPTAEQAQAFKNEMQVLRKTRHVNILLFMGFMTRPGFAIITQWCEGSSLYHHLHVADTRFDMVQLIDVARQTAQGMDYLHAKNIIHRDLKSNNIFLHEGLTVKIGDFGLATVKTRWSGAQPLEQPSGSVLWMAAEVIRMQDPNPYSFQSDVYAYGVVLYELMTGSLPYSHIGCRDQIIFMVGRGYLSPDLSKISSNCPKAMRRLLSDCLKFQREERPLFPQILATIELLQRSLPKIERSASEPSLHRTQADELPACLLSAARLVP
Chain of TNK1 (Q13470 whole entry): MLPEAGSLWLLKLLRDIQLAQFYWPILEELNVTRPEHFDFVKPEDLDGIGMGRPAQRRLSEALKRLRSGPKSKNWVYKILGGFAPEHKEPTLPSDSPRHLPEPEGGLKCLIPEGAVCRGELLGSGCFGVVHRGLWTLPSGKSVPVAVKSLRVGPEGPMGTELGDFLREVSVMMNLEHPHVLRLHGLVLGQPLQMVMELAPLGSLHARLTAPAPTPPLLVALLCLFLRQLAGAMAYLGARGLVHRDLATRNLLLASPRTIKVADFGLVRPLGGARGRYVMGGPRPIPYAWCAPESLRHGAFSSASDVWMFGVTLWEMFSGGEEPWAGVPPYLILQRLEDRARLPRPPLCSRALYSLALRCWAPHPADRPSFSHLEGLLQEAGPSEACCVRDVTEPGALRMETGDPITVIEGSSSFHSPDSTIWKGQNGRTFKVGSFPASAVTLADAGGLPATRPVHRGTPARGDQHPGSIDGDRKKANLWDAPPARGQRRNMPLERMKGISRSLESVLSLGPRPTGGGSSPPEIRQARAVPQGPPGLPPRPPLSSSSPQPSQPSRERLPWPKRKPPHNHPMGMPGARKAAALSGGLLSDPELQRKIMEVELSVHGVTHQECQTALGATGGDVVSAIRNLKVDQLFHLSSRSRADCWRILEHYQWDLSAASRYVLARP
Chain of PKN2 (Q16513 whole entry, looked up): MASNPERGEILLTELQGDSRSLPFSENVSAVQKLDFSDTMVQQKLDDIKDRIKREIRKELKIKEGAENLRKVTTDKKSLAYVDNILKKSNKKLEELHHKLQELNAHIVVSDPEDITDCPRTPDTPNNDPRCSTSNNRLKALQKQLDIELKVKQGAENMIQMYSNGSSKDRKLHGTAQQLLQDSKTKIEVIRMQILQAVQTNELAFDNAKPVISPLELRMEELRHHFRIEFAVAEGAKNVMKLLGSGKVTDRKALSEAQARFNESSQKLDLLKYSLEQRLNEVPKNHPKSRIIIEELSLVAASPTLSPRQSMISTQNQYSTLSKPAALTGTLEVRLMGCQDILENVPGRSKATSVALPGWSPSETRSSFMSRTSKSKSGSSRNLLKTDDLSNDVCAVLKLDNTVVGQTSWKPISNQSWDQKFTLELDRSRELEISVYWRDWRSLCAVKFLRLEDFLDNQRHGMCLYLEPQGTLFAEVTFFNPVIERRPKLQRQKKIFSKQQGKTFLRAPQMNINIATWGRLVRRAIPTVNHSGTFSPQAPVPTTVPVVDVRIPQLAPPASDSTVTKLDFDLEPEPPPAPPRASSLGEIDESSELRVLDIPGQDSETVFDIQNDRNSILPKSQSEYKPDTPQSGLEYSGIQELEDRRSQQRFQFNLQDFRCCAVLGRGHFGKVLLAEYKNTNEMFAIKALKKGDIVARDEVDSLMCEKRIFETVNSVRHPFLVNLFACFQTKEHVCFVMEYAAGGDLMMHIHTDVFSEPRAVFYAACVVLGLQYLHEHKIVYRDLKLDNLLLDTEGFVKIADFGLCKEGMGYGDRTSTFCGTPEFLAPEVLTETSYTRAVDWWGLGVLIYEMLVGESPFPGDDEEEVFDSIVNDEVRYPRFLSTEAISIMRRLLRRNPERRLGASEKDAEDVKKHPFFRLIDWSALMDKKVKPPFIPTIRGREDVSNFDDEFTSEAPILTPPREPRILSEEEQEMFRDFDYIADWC
Chain of MKNK1 (Q9BUB5 whole entry, looked up): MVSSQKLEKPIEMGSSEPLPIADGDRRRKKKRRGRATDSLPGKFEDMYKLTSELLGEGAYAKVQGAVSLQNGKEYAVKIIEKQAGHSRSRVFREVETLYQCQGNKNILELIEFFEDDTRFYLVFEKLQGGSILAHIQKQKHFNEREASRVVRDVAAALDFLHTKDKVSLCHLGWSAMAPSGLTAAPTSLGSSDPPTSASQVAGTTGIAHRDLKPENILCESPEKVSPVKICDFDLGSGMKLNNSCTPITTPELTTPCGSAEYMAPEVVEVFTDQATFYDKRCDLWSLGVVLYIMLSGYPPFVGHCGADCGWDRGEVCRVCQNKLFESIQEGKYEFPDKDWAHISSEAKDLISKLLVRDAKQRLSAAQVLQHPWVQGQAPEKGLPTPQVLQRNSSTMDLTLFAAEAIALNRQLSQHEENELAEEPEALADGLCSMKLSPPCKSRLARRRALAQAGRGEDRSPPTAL

COc1ccc(-c2ccc3c(N4CCOC[C@@H]4C)nc(N4CCOC[C@@H]4C)nc3n2)cc1CO [AZD8055]
< 6: RIPK2 | FRK | MKNK1 | PIM3 | PIP4K2B | CDC2 | PKN2 | HIPK3 | FGFR1 | PDPK1 | RIOK2; [1] | RIOK2; [2] | MAP2K4 | TNK1 | PRKD2 | ARAF | PRKAA1

CCNC(=O)Nc1ccc(-c2nc(N3CCOC[C@@H]3C)c3c(n2)C(C)(C)S(=O)(=O)C3)cc1 [CZ415]
< 6: RIPK2 | DDR2 | FRK | SGK1 | CAMK1D | MKNK1 | EIF2AK3 | MAPK15 | PIM3 | ADCK5 | PIP4K2B | MAPK10 | CDC2 | PKN2 | HIPK3 | TLK1 | MAP4K1 | FGFR1 | RP6-213H19 1 | MAP3K11 | PDPK1 | DYRK1B | RIOK2; [1] | RIOK2; [2] | MAP2K4 | CAMK1 | RIPK4 | LCK | TNK1 | PAK6 | PRKACA | EIF2AK2 | PRKD2 | ARAF | PRKAA1
